From patent US20220289753A1, “SHP2 INHIBITORS” (IRBM S.P.A., priority 2019, published 2022) come the findings set out here.

Assay [1] deals with T1, SHP-2 enzyme (Met1-Leu525) (Homo sapiens, UniProt Q06124).
T1 construct: synthetized by Origene, Met1-Leu525, cat #TP750155; purchased Origene TP750155
T1 sequence (Q06124 1-525): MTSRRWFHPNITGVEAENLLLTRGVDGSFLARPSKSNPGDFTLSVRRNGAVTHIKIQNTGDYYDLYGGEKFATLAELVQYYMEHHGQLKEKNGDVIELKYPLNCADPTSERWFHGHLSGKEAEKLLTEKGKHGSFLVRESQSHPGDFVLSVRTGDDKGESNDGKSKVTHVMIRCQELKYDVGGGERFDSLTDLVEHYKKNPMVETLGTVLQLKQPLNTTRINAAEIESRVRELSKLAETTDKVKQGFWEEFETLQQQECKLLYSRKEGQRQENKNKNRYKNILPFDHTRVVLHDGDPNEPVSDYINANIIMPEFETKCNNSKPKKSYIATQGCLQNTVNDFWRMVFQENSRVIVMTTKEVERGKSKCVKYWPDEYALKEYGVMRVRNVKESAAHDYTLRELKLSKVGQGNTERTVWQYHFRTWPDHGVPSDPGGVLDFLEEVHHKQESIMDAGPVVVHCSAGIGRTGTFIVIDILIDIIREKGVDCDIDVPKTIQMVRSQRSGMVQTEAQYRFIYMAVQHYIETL
The experiment in a line: SHP2 inhibition enzymatic assay (DiFMUP substrate, IRS1 peptide activation). In kind it is biochemical. Particulars: SHP2 wt; activated by 500 nM IRS1 peptide; 75 μM DiFMUP substrate. Summed up:
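SHP-2 (Met1-Leu525, 0.5 nM final) preincubated 30 min with compounds and IRS1 activating peptide in HEPES pH 7.2 buffer with NaCl, KCl, EDTA, tween-20, 5 mM DTT. DiFMUP then added for 30 min at room temperature and fluorescence read. IC50 from four-parameter logistic fit of % inhibition.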

Assay [2] relates to ERK phosphorylation in KYSE-520 cells. The assay is described as follows: Phospho-ERK cellular assay (Advanced phospho-ERK1/2 (Thr202/Tyr204) TR-FRET kit). Format: cell-based. The conditions noted are these: Homo sapiens, KYSE-520, 2 h, KYSE-520 cells, 2 h at 37° C., TR-FRET; read-out: pERK IC50. Summed up: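 KYSE-520 cells were treated 2 h at 37° C with serially diluted compounds, then lysed. Phospho-ERK1/2 (Thr202/Tyr204) was detected by TR-FRET after overnight antibody incubation at room temperature. IC50 came from a four-parameter logistic fit; lower signal reflects greater SHP2 inhibition.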

Take `N[C@@H]1c2ccccc2CC12CCN(c1nc3nc(Sc4cccc5c4OC(F)(F)O5)cnc3[nH]1)CC2` [Example 136, (S)-1′-(5-((2,2-difluorobenzo[d][1,3]dioxol-4-yl)thio)-1H-imidazo[4,5-b]pyrazin-2-yl)-1,3-dihydrospiro[indene-2,4′-piperidin]-1-amine]: the IC50 in assay [1] is less than 500 nM; in assay [2], less than 1000 nM.

Consider `Nc1nccc(Sc2cnc3[nH]c(N4CCC5(CC4)Cc4ccc(C6CC6)cc4[C@H]5N)nc3n2)c1Cl` [Example 257, (S)-1′-(5-((2-amino-3-chloropyridin-4-yl)thio)-1H-imidazo[4,5-b]pyrazin-2-yl)-6-cyclopropyl-1,3-dihydrospiro[indene-2,4′-piperidin]-1-amine], for which the figures for the IC50 in assay [1] and in assay [2] were less than 500 nM and less than 1000 nM, respectively.

As for `N[C@@H]1c2ccccc2OC12CCN(c1nc3nc(Sc4ccncc4Cl)cnc3[nH]1)CC2` [Example 155, (R)-1′-(5-((3-chloropyridin-4-yl)thio)-1H-imidazo[4,5-b]pyrazin-2-yl)-3H-spiro[benzofuran-2,4′-piperidin]-3-amine], the IC50 in assay [1] was less than 500 nM; in assay [2] it was 1000 to 5000 nM.

`N[C@@H]1c2cccnc2CC12CCN(c1nc3nc(Sc4ccncc4Cl)cnc3[nH]1)CC2` [Example 150, (S)-1′-(5-((3-chloropyridin-4-yl)thio)-1H-imidazo[4,5-b]pyrazin-2-yl)-5,7-dihydrospiro[cyclopenta[b]pyridine-6,4′-piperidin]-5-amine]: the IC50 in assay [1] is less than 500 nM; in assay [2] it was 1000 to 5000 nM.

Consider `N[C@@H]1c2ccccc2CC12CCN(c1nc3ncc(Sc4cccc5nccnc45)nc3[nH]1)CC2` [Example 179, (S)-1′-(5-(quinoxalin-5-ylthio)-1H-imidazo[4,5-b]pyrazin-2-yl)-1,3-dihydrospiro[indene-2,4′-piperidin]-1-amine], for which the IC50 is less than 500 nM in assay [1] and less than 1000 nM in assay [2].

Consider `Cc1nccc(Sc2cnc3nc(N4CCC5(CC4)Cc4ccccc4[C@H]5N)[nH]c3n2)c1Cl` [Example 195, (S)-1′-(6-((3-chloro-2-methylpyridin-4-yl)thio)-1H-imidazo[4,5-b]pyrazin-2-yl)-1,3-dihydrospiro[indene-2,4′-piperidin]-1-amine], for which the IC50 in assay [1] is less than 500 nM; in assay [2] it was less than 1000 nM.

Regarding `COc1cnccc1Sc1cnc2nc(N3CCC4(CC3)Cc3ccc(F)cc3[C@H]4N)[nH]c2n1` [Example 182], the IC50 in assay [1] was less than 500 nM; in assay [2], less than 1000 nM.

With `N[C@@H]1c2ccccc2CC12CCN(c1nc3nc(Sc4ccnc(NC5CC5)c4Cl)cnc3[nH]1)CC2` [Example 160, (S)-1′-(5-((3-chloro-2-(cyclopropylamino)pyridin-4-yl)thio)-1H-imidazo[4,5-b]pyrazin-2-yl)-1,3-dihydrospiro[indene-2,4′-piperidin]-1-amine], the IC50 is less than 500 nM in assay [1] and less than 1000 nM in assay [2].

With `COC(=O)c1c(N2CCC3(CC2)Cc2ccccc2[C@H]3N)[nH]c2ncc(Sc3cccc(Cl)c3Cl)nc12` [Example 253, methyl (S)-6-(1-amino-1,3-dihydrospiro[indene-2,4′-piperidin]-1′-yl)-2-((2,3-dichlorophenyl)thio)-5H-pyrrolo[2,3-b]pyrazine-7-carboxylate], the IC50 was less than 500 nM in assay [1] and less than 1000 nM in assay [2].

With `COc1c(Sc2cnc3nc(N4CCC5(CC4)Cc4ccc(F)cc4[C@H]5N)[nH]c3n2)ccnc1N` [Example 190, (S)-1′-(6-((2-amino-3-methoxypyridin-4-yl)thio)-1H-imidazo[4,5-b]pyrazin-2-yl)-6-fluoro-1,3-dihydrospiro[indene-2,4′-piperidin]-1-amine], the IC50 in assay [1] was less than 500 nM; in assay [2], less than 1000 nM.

On to `Nc1nccc(Sc2cnc3nc(N4CCC5(CC4)Cc4cc(F)ccc4[C@H]5N)[nH]c3n2)c1Cl` [Example 199, (S)-1′-(6-((2-amino-3-chloropyridin-4-yl)thio)-1H-imidazo[4,5-b]pyrazin-2-yl)-5-fluoro-1,3-dihydrospiro[indene-2,4′-piperidin]-1-amine], for which the IC50 in assay [1] is less than 500 nM; in assay [2], less than 1000 nM.

`N[C@@H]1c2cccnc2CC12CCN(c1nc3ncc(Sc4cccc(Cl)c4Cl)nc3[nH]1)CC2` [Example 172, (S)-1′-(5-((2,3-dichlorophenyl)thio)-1H-imidazo[4,5-b]pyrazin-2-yl)-5,7-dihydrospiro[cyclopenta[b]pyridine-6,4′-piperidin]-5-amine]: the values for the IC50 in assay [1] and in assay [2] were less than 500 nM and less than 1000 nM, respectively.

For the compound `CN(C)c1nccc(Sc2cnc3[nH]c(N4CCC5(CC4)Cc4ncccc4[C@H]5N)nc3n2)c1Cl` [Example 154, (S)-1′-(5-((3-chloro-2-(dimethylamino)pyridin-4-yl)thio)-1H-imidazo[4,5-b]pyrazin-2-yl)-5,7-dihydrospiro[cyclopenta[b]pyridine-6,4′-piperidin]-5-amine], the figures for the IC50 in assay [1] and in assay [2] were less than 500 nM and more than 5000 nM, respectively.

In the case of `COc1nccc(Sc2cnc3[nH]c(N4CCC5(CC4)Cc4ncccc4[C@H]5N)nc3n2)c1Cl` [Example 151, (S)-1′-(5-((3-chloro-2-methoxypyridin-4-yl)thio)-1H-imidazo[4,5-b]pyrazin-2-yl)-5,7-dihydrospiro[cyclopenta[b]pyridine-6,4′-piperidin]-5-amine], the figures for the IC50 in assay [1] and in assay [2] were less than 500 nM and more than 5000 nM, respectively.

Turning to `N[C@@H]1c2ccccc2CC12CCN(c1nc3nc(Sc4ccnc5[nH]ccc45)cnc3[nH]1)CC2` [Example 232, (S)-1′-(5-((1H-pyrrolo[2,3-b]pyridin-4-yl)thio)-1H-imidazo[4,5-b]pyrazin-2-yl)-1,3-dihydrospiro[indene-2,4′-piperidin]-1-amine], the values for the IC50 in assay [1] and in assay [2] were less than 500 nM and less than 1000 nM, respectively.

As for `N[C@@H]1c2ccccc2CC12CCN(c1nc3ncc(Sc4cccc5c4OCCO5)nc3[nH]1)CC2` [Example 167, (S)-1′-(6-((2,3-dihydrobenzo[b][1,4]dioxin-5-yl)thio)-1H-imidazo[4,5-b]pyrazin-2-yl)-1,3-dihydrospiro[indene-2,4′-piperidin]-1-amine], the concentration for half-maximal inhibition (IC50) in assay [1] is less than 500 nM; in assay [2], less than 1000 nM.

In the case of `N[C@@H]1CCCC12CCN(c1nc3ncc(Sc4cccnc4C(F)(F)F)nc3[nH]1)CC2` [Example 2, (R)-8-(6-((2-(trifluoromethyl)pyridin-3-yl)thio)-1H-imidazo[4,5-b]pyrazin-2-yl)-8-azaspiro[4.5]decan-1-amine], the IC50 is less than 500 nM in assay [1] and 1000 to 5000 nM in assay [2].

Consider `Cn1ncc2nccc(Sc3cnc4[nH]c(N5CCC6(CC5)Cc5ccccc5[C@H]6N)nc4n3)c21` [Example 261, (S)-1′-(5-((1-methyl-1H-pyrazolo[4,3-b]pyridin-7-yl)thio)-1H-imidazo[4,5-b]pyrazin-2-yl)-1,3-dihydrospiro[indene-2,4′-piperidin]-1-amine], for which the values for the half-maximal inhibitory concentration (IC50) in assay [1] and in assay [2] were less than 500 nM and less than 1000 nM, respectively.
